The text below walks through data of publication PMC6318274, “Lattice engineering enables definition of molecular features allowing for potent small-molecule inhibition of HIV-1 entry” (Nature Communications, 2019).

Read-outs that look alike come from different tables or passages of the source.

Assay [1] has as its system HIV-1 strain NL4-3. The conditions noted are these: cited from earlier work.
The test system of assay [2] is SVA.MLV. Further details: method as in earlier work. The conditions noted are these: clade NA; cited from earlier work.
Assay [3] relates to SVA.MLV. As to the kind of experiment: Neutralization assay, control virus SVA.MLV. It is filed as cell-based. The conditions noted are these: clade NA. The procedure:
(§1) Neutralization was measured using single-round-of-infection HIV-1 Env-pseudoviruses and TZM-bl target cells (ARP Cat No. #8129)[44],[45]. Compounds were prepared at 400 μM with 4% DMSO (dimethyl sulfoxide) in PBS (phosphate-buffered saline) and diluted 20 times as the starting concentration for serial dilution in the neutralization assays. Pseudoviruses of ten strains from HIV-1 clades A, B, and C were incubated with serial dilutions of drug compounds, then added to TZM-bl target cells which have a luciferase reporter gene. After incubation at 37 °C for 2 days, infection of target cells was measured by luciferase activity. Neutralization curves were fit by nonlinear regression using a five-parameter hill slope equation[45].

The subject of assay [4] is SIVmac251.30.SG3. Nature of the assay: Neutralization assay, control virus SIVmac251.30.SG3. The assay is classed as cell-based, SIV. The conditions noted are these: Simian immunodeficiency virus; SIVmac251.30.SG3, clade NA. As to the method:
as §1

Turning to `COc1cnc(-n2cnc(C)n2)c2[nH]cc(C(=O)C(=O)N3CCN(C(=O)c4ccccc4)CC3)c12` [BMS-626529], in assay [1], the EC50 was 0.0022 ± 0.0006 µM. Further, in assay [2], the half-inhibitory concentration (IC50) was greater than 20 µM.
Turning to `COc1cnc(-c2csc(C(=O)NCCO)n2)c2[nH]cc(C(=O)C(=O)N3CCC(=C(C#N)c4ccccc4)CC3)c12` [BMS-818251], the IC50 in assay [3] and in assay [4] was greater than 20 µM throughout.

What is called EC50 is the concentration giving half of the maximal effect. By IC50 is commonly meant the concentration that inhibits the measured activity by half.
